Data from patent US20130189248A1, “EGFR INHIBITOR AND ANTIVIRAL AGENT FOR SIMULTANEOUS, SEPARATE OR SEQUENTIAL USE IN THE TREATMENT AND/OR PREVENTION AND/OR PALLIATION OF CANCER” (priority 2010, published 2013).
Where two headings read alike, the source gives them in different places.

Key:
[1] = tested on: viral DNA polymerase; settings: cited from earlier work
[2] = tested on: HeLa cells (human HPV-positive cervical carcinoma cells); experiment: Clonogenicity test on HeLa cells (with Bliss additivity model); type: cell-based
Procedure: (§1) The cell lines are available from the American Type Culture Collection (ATCC): • HeLa cells (human HPV-positive cervical carcinoma cells): ATCC n° CCL-2; • Me180 cells (human HPV-positive cervical carcinoma cells): ATCC n° HTB-33; • C33A cells (human HPV-negative cervical carcinoma cells): ATCC n° HTB-31. • H460 cells (human HPV-negative lung carcinoma cells): ATCC n° HTB-177.
The HeLa cells contained 10-50 copies of integrated HPV18.
(§2) The cell lines were grown in humid incubators at 37° C. under 5% CO2.
(§3) Each of said treatments last the 10-15 days of the clonogenic assay.
(§4) The culture medium has not been replaced during the assay.
(§5) The cultures were stopped by fixing and staining with crystal violet (methanol 80%, formaldehyde 10%, crystal violet 1.25 g), when the clones reached 50 cells. The clones were then counted and related to the number of cells cultured to obtain the fraction of surviving cells.
(§6) The Bliss additivity model was used to classify the effect of the drug combination as synergistic, additive or antagonist.
(§7) A theoretical curve of the expected effect of the combination was calculated from the equation:
(§8) Bliss effect=effect A+effect B−effect A×effect B,
(§9) where effect A and effect B are the effects of drugs A and B alone at specific concentrations.
(§10) Here, the Bliss effect is the expected effect when the combination of the two drugs is exactly additive. If the observed effect (the experimentally measured effect of the combination) is lower than the Bliss effect, the effect of the combination is said to be antagonist (delta=observed effect−Bliss effect is a negative value). If the observed effect is greater than the Bliss effect, the effect of the combination is synergistic (delta is positive).
(§11) The data are expressed as a percentage decrease in cell viability beyond that which would be expected if the association were strictly additive.

[3] = tested on: Me180 cells (human HPV-positive cervical carcinoma cells); experiment: Clonogenicity test on Me180 cells (with Bliss additivity model); type: cell-based
Procedure: as §1
Me180 cells were grown in the GIBCO® McCoy's 5A medium (available from Invitrogen under catalog reference number 26600023), supplemented with 10% FCS, 1% penicillin/streptomycin and 1% glutamine.
as §2, §3, §4, §5, §6, §7, §8, §9, §10, §11

[4] = tested on: C33A cells (human HPV-negative cervical carcinoma cells); type: cell-based
Procedure: as §1, §2, §3, §4, §5, §6, §7, §8, §9, §10, §11

[5] = tested on: H460 cells (human HPV-negative lung carcinoma cells); experiment: Clonogenicity test on H460 cells; type: cell-based; settings: H460 (printed H480); cidofovir alone (10 μg/mL, FIG. 4A)
Procedure: as §1, §2, §3, §4, §5

[6] = tested on: HeLa xenograft; experiment: HeLa xenograft in female nude mice; type: in vivo; settings: cidofovir i.p. days 1-5, cetuximab i.p. 1 mg/mouse days 1, 4, 7, alone or combined
Procedure: Unless otherwise indicated, materials and methods are those described in example 1 above. The in vivo experiments were carried out at the Institut Gustave Roussy (94805 Villejuif; France), with the approval of the French Ministry of Agriculture.
10- to 12-week old female nude mice were injected subcutaneously (into the flank) with 2×10^6 live HeLa cells suspended in 100 μL of culture medium without Fetal Calf Serum (FCS) to study tumor growth. […] Tumor volume and weight were monitored twice a week. The mice were sacrificed when the tumor reached ten times the initial volume.

[7] = tested on: Me180 xenograft; experiment: Me180 xenograft in mice; type: in vivo; settings: cidofovir, cetuximab alone or combined
[8] = cidofovir 3 mg/kg, AIDS patients with CMV retinitis, after 1 hour of infusion; cited from earlier work
[9] = tested on: herpesvirus polymerases; settings: cited from earlier work
[10] = human, in vivo; cited from earlier work
[11] = erlotinib alone 0.1 μM/mL, listed as Erlotinib
[12] = foscarnet sodium alone 200 μM/mL, listed as Foscarnet
[13] = foscarnet sodium alone 200 μM/mL, listed as Foscarnet sodium

In the case of `Nc1nc2c(ncn2COCCOP(=O)(O)OP(=O)(O)OP(=O)(O)O)c(=O)[nH]1` [Acyclo-GTP, acyclo-guanosine triphosphate], the “times greater affinity for viral than cellular polymerase” value [1] is listed as “approximately 100 times”.
In the case of `Nc1ccn(C[C@@H](CO)OCP(=O)(O)O)c(=O)n1` [cidofovir, 1-[(S)-3-hydroxy-2-(phophonomethoxy)propyl]cytosine dehydrate], the “concentration at which the drug alone had an effect on clonogenicity” value ([2]; cidofovir alone) is reported as “at least 5 μg/mL”, the “reduction in clonogenicity compared to the control / Decrease in living cells (%)” value ([2]; cidofovir alone 5 μg/mL) is reported as 15% and the “reduction in clonogenicity compared to the control” value ([2]; cidofovir alone 10 μg/mL) is reported as 25%. The clonogenic survival ([2]; cidofovir alone at 1 μg/mL) was “about 100%”, the “concentration at which the drug alone had an effect on the cells” value ([3]; cidofovir alone) was “at least 1 μg/mL” and the “reduction in cell survival (clonogenicity) compared to the control” value ([3]; cidofovir alone 1 μg/mL) was “about 30%”. For the same compound, the “reduction in clonogenicity compared to the control / Decrease in living cells (%)” value ([3]; cidofovir alone 5 μg/mL) was 40%, the “reduction in cell survival compared to the control” value ([4]; cidofovir alone 1 μg/mL) was “about 20%” and the “reduction in cell survival / clonogenicity compared to the control / Decrease in living cells (%)” value ([4]; cidofovir alone 5 μg/mL) was “minus 20%”. The “effect on cell survival” value [5] was “no significant effect”, the “tumor growth (tumor volume) compared to the control group” value [6] was “does not reduce tumor growth” and the “tumor growth compared to the control group” value [7] was “does not reduce tumor growth”. The plasmatic concentration [8] was 7.6 ± 1.4 µg/mL.
In the case of `C#Cc1cccc(Nc2ncnc3cc(OCCOC)c(OCCOC)cc23)c1` [erlotinib, N-(3-ethynylphenyl)-6,7-bis(2-methoxyethoxy)-4-quinazolinamine], the “reduction in clonogenicity compared to the control / Decrease in living cells (%)” value ([2]; erlotinib alone 0.1 μM/mL) is reported as “minus 50%”, the “reduction in clonogenicity compared to the control / Decrease in living cells (%)” value [2, 11] is reported as 50% and the “reduction in clonogenicity compared to the control / Decrease in living cells (%)” value ([3]; erlotinib alone 0.1 μM/mL) is reported as “minus 50%”. For the same compound, the “reduction in clonogenicity compared to the control / Decrease in living cells (%)” value [3, 11] was 50%, the “reduction in clonogenicity compared to the control / Decrease in living cells (%)” value ([3]; erlotinib alone 0.5 μM/mL) was “minus 80%” and the “reduction in clonogenicity compared to the control / Decrease in living cells (%)” value ([3]; erlotinib alone 0.5 μM/mL, listed as Erlotinib) was 80%. The “reduction in clonogenicity compared to the control / Decrease in living cells (%)” value ([4]; erlotinib alone 0.1 μM/mL) was “minus 10%” and the “reduction in clonogenicity compared to the control / Decrease in living cells (%)” value [4, 11] was 10%.
For `O=C(O)P(=O)(O)O` [foscarnet, phosphonoformic acid], the “reduction in clonogenicity compared to the control / Decrease in living cells (%)” value [2, 12] was “minus 20%”, the “reduction in clonogenicity compared to the control / Decrease in living cells (%)” value [2, 13] was 20% and the “reduction in clonogenicity compared to the control / Decrease in living cells (%)” value [3, 12] was “minus 35%”. The “reduction in clonogenicity compared to the control / Decrease in living cells (%)” value [3, 13] was 35%, the “reduction in clonogenicity compared to the control / Decrease in living cells (%)” value [4, 12] was “minus 20%” and the “reduction in clonogenicity compared to the control / Decrease in living cells (%)” value [4, 13] was 20%.
For Cidofovir diphosphate, the “fold lower concentration needed to inhibit herpesvirus polymerases than human cellular DNA polymerases” value [9] is listed as 8- to 600 fold.
For “Vectibix®: recombinant, fully human IgG2 kappa monoclonal antibody that binds specifically to the human EGFR”, the “incidence of NCI-CTC grade 3-5 adverse reactions” value [10] is given as 87%, the “patients with dermatologic toxicities” value [10] is given as 89% and the “patients with severe dermatologic toxicities (NCI-CTC grade 3 and higher)” value [10] is given as 12%.
